Entries after “also recorded” stand apart in the source; their conditions may differ.
B1: PrfA wild type (transcriptional activator PrfA of Listeria monocytogenes) (natural protein)
chain: MNAQAEEFKKYLETNGIKPKQFHKKELIFNQWDPQEYCIFLYDGITKLTSISENGTIMNLQYYKGAFVIMSGFIDTETSVGYYNLEVISEQATAYVIKINELKELLSKNLTHFFYVFQTLQKQVSYSLAKFNDFSINGKLGSICGQLLILTYVYGKETPDGIKITLDNLTMQELGYSSGIAHSSAVSRIISKLKQEKVIVYKNSCFYVQNLDYLKRYAPKLDEWFYLACPATWGKLN
notes: also called PrfAWT; source: purified PrfA protein

Experiments:
[1] = test system: intracellular ActA expression of L. monocytogenes in Caco-2 cells; assay: Intracellular ActA levels in infected Caco-2 cells, compound added 30 min post infection; assay type: cell-based, Listeria monocytogenes; details: 100 μM added 30 min post infection, 4 hr post infection
Description: (§1) (D) Compound 2 abrogates intracellular induction of ActA expression. Caco-2 cells were infected with the indicated bacteria and treated 30 min post infection with 100 μM of 2 or the equivalent volume of DMSO (C). Total cellular protein was extracted at indicated time points after addition of compound and subjected to SDS-PAGE. The levels of ActA protein were visualized by western blot using a specific antibody.
ActA western blotting detection for intracellular bacteria: The collected bacterial pellets were resuspended in 100µl 1x sample buffer (Laemmli, 1970) and lysed by incubation at 98 °C for 20 min. 10µL of each sample was subjected to SDS-PAG and Western blotting using anti-ActA […]
Production of antibodies against ActA was conducted by Agrisera. The antibodies were raised in rabbits, against a peptide mix consisting of Y21T(Kocks et al., 1993) and (NH2-) […]
(-CONH2). The rabbits were immunized four times over a four month period, the first with FCA and the subsequent with FIA. The antisera was recovered 2 weeks after the last immunization.
Infection for determination of intracellular ActA levels
Caco-2 cells were seeded into 24 well plates (Corning #356408) and allowed to grow until confluent. Indicated bacterial strains were grown to OD600 = 1, added to CaCo-2 cells at a MOI of 10, centrifuged for 10 min at 800 g and allowed to infect for 30 minutes. […]

[2] = test system: L. monocytogenes strain EGDe (WT) uptake by HeLa cells; assay type: cell-based, Listeria monocytogenes; details: 10 and 1 μM, viable count
Description: (§2) Figure 1 Ring-Fused 2-Pyridones Inhibit L. monocytogenes Uptake by Cultured Cells (A) Relative uptake (%) compared with control as determined by viable count measurements. […] All samples were correlated to the DMSO control (C, gray bar), which was arbitrarily set at 100%. Error bars show SDs. […] See also Figure S1. […] Error bars show SDs.

[3] = test system: L. monocytogenes strain F2365 uptake into Caco-2 cells; assay: Uptake of L. monocytogenes strain F2365 into Caco-2 cells; assay type: cell-based, Listeria monocytogenes; details: 50 μM, 2 hr
Description: Protein extracts were isolated from indicated L. monocytogenes strain in the absence (C, equivalent volume DMSO) or presence of 100 μM of 1 and the specified proteins (LLO PrfA, or P60 (control)) were detected by western blot using specific antibodies. […] (B) Compound 2 inhibits the uptake of an L. monocytogenes strain of serovar 4b. L. monocytogenes strain F2365 was allowed to infect Caco-2 cells for 2 hr with 2 (50 μM). All samples were correlated to the DMSO-treated control (C, gray bar) which was arbitrarily set at 100%. Error bars show SDs.

[4] = molecular target: T1, PrfAWT binding to hly-DNA (Listeria monocytogenes serovar 1/2a, UniProt P22262); assay: SPR, binding of compound-pre-incubated PrfAWT to hly-promoter DNA; assay type: biochemical; details: 200 nM protein, 37°C, read-out: IC50, reduction of binding of PrfAWT to hly-DNA
T1 construct: followed by residues Glu7-N237; vector-derived N-terminal tail […]; (left after thrombin cleavage; inferred from pET28a and Ni-NTA capture), removed by thrombin (N, cleaved yes); made in house; host or cells: E. coli BL21(DE3)

PrfAWT = molecular target: T2, PrfAWT (Listeria monocytogenes serovar 1/2a, UniProt P22262); assay: Isothermal titration calorimetry (ITC), binding to purified PrfAWT
T2 construct: followed by residues Glu7-N237; vector-derived N-terminal tail […]; (left after thrombin cleavage; inferred from pET28a and Ni-NTA capture), removed by thrombin (N, cleaved yes); made in house; host or cells: E. coli BL21(DE3)

[5] = test system: LLO and ActA expression in L. monocytogenes; assay: Western blot of virulence protein levels (LLO, ActA, PrfA, P60), EGDe; assay type: cell-based, Listeria monocytogenes; details: for expression of LLO and ActA (protein): 100 μM; for PrfA expression (protein): across all concentrations
Description: as §1
A detailed procedure is provided in the Supplemental Experimental Procedures.
concentration of 0.1% DMSO. […] The
incubated on ice for 1 h.
washed in 80% ice cold acetone.
Subsequently the samples were centrifuged and the
added lysozyme and DNase.
secondary antibodies (Dako P0260).

[6] = test system: L. monocytogenes carrying PrfAWT in Caco-2 cells; assay: Time-course infection of Caco-2 cells, strain carrying PrfAWT; assay type: cell-based, Listeria monocytogenes; details: viable counts, 50 μM / 100 μM
Description: as §2

crystal structure = molecular target: the molecule itself; assay: crystal structure

| Molecule | induction of intracellular ActA levels [1] | L. monocytogenes uptake relative to untreated controls [2] | uptake of the F2365 strain into Caco-2 cells [3] | IC50 [4] [µM] | binding stoichiometry per monomer of homodimeric PrfA (PrfAWT) | expression of LLO and ActA (protein) [5] | PrfA expression (protein) [5] | concentration down to which LLO and ActA levels were decreased ([5]; dose dependent) [µM] | replication of L. monocytogenes (PrfAWT) within Caco-2 cells [6] | stoichiometry N (crystal structure) |
| --- | --- | --- | --- | --- | --- | --- | --- | --- | --- | --- |
| Cc1ccc(Cc2cc(=O)n3c(c2C2CC2)SC[C@H]3C(=O)O)c2ccccc12 [compound 2] | weakened in compound-treated cells, although not completely abolished | reducing the level of L. monocytogenes uptake | effectively inhibited uptake | 6 to 7 | 1 to 1 | abolished | remained unchanged | ≤ 3.3 | inability of L. monocytogenes to replicate; also recorded: unable to replicate |  |
| O=C(O)[C@@H]1CSc2c(C3CC3)c(Cc3cnc4ccccc4c3)cc(=O)n21 [compound 3] |  | consistently failed to attenuate uptake |  | ~30 | 1 to 1 | did not reduce LLO or ActA expression | remained unchanged |  |  |  |
| B1 |  |  |  |  |  |  |  |  |  | 2 |
